In patent US9896445B2, “Heterocyclic inhibitors of ERK1 and ERK2 and their use in the treatment of cancer” (Asana Biosciences, LLC, priority 2015, dated 2018):

Key:
ERK1 = biological target: T1, ERK1 (Homo sapiens, UniProt P27361); assay: ERK1 HTRF (biochemical) assay
T1 construct: purchased Jubilant Biosys
Protocol: (§1) ERK1 and ERK2 HTRF (Biochemical) Assays
These assays employed a homogeneous time resolved fluorescence (HTRF) technique. […] The plate was incubated at room temperature for 60 min with shaking. […] The IC50 values (half maximal inhibitory concentration values) were subsequently determined using a sigmoidal dose-response curve (variable slope) in GraphPad Prism® 5 software.

ERK2 = biological target: T2, ERK2 (Homo sapiens, UniProt P28482); assay: ERK2 HTRF (biochemical) assay
T2 construct: purchased Jubilant Biosys
Protocol: as §1
These assays employed a homogeneous time resolved fluorescence (HTRF) technique. The compounds were serially diluted by half-log with concentrations ranging from 0.0005 to 10 uM in the assay buffer (50 mM Tris pH=7.5, 1 mM EGTA, 2 mM DTT, 10 mM MgCl2, 0.1% Tween-20) and 20 uL of substrate-ATP mix [1 uM Biotin-LC-Myelin Basic Protein (MBP) derivatized Peptide (Anaspec)-24 uM ATP (Sigma)] was added to each well of the assay plate. Then 10 uL of enzyme mix [25 nM ERK1 or ERK2 (Jubilant Biosys) in assay buffer] was added to each well. The plate was incubated at room temperature for 60 min with shaking. The HTRF mix [625 nM LANCE® Ultra Europium-anti-phospho-MBP (Perkin Elmer) and 2 nM Phycolink® Streptavidin-Allophycocyanin (SA-APC) (Prozyme) in HTRF buffer (50 mM Tris-HCl pH=7.5, 100 mM NaCl, 0.1% BSA, 0.05% Tween20, 0.5 mM EDTA)] was prepared and 75 uL of this mix was added to the HTRF plate. After incubation for 60 min at room temperature, 10 uL of the reaction mixture was transferred to the HTRF assay plate and incubated for 45 min at room temperature with shaking. Plate was read using Pherastar in HTRF mode (excitation 337 nm, emission 665 & 620 nm). The IC50 values (half maximal inhibitory concentration values) were subsequently determined using a sigmoidal dose-response curve (variable slope) in GraphPad Prism® 5 software.

T2 sequence (P28482 whole entry): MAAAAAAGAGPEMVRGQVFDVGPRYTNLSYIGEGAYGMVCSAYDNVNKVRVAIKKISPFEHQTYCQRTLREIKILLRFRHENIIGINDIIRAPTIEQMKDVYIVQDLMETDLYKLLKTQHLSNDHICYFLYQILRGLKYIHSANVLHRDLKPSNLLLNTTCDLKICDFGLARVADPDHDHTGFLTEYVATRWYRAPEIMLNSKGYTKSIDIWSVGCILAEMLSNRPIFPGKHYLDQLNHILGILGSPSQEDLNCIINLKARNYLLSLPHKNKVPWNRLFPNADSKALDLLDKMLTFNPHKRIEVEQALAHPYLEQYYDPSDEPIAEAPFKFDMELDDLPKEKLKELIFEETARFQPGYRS
T1 sequence (P27361 whole entry): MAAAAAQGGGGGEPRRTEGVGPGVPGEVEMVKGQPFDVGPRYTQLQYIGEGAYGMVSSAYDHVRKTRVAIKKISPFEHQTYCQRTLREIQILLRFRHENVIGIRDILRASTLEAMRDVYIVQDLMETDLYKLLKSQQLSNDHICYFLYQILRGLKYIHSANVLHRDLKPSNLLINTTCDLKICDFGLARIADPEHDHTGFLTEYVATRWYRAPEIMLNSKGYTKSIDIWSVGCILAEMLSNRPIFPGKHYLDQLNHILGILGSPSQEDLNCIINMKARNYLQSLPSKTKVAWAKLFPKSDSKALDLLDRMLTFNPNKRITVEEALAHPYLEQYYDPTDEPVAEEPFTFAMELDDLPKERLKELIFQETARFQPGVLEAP

| Compound | IC50 (ERK1; HTRF) | IC50 (ERK2; HTRF) | IC50 (ERK1; HTRF biochemical assay) | IC50 (ERK2; HTRF biochemical assay) |
| --- | --- | --- | --- | --- |
| Cc1cnc(Nc2ccc(F)cc2Cl)nc1-n1cc(NC(=O)NC(CO)c2cccc(Cl)c2)cn1 (stereo not shown) [Compound 36, 1-(1-(2-((2-chloro-4-fluorophenyl)-amino)-5-methyl-pyrimidin-4-yl)-1H-pyrazol-4-yl)-3-(1-(3-chlorophenyl)-2-hydroxyethyl)urea] | 100 to 500 nM | ≤ 50 nM |  |  |
| Cc1cnc(Nc2ccc(F)cc2Cl)cc1-n1cnc(C(=O)NC(CO)c2ccccc2)c1 (stereo not shown) [Compound 85, 1-(2-((2-chloro-4-fluorophenyl)amino)-5-methylpyridin-4-yl)-N-(2-hydroxy-1-phenylethyl)-1H-imidazole-4-carboxamide] | 100 to 500 nM | 100 to 500 nM |  |  |
| COc1cc(Nc2ncc(C)c(-n3ccc(C(=O)N[C@H](CO)c4ccc(F)c(Cl)c4)c3)n2)cc(OC)c1OC [Compound 126, (S)-N-(1-(3-chloro-4-fluorophenyl)-2-hydroxyethyl)-1-(5-methyl-2-((3,4,5-trimethoxyphenyl)amino)pyrimidin-4-yl)-1H-pyrrole-3-carboxamide] | < 50 nM | ≤ 50 nM |  |  |
| CC[C@H](CO)Nc1ncc(C)c(-n2ccc(C(=O)NC(CO)c3cccc(Cl)c3)c2)n1 (stereo partly drawn) [Compound 167, N-(1-(3-chloro-phenyl)-2-hydroxy-ethyl)-1-(2-(((R)-1-hydroxybutan-2-yl)amino)-5-methylpyrimidin-4-yl)-1H-pyrrole-3-carboxamide] | < 50 nM | ≤ 50 nM |  |  |
| Cc1cnc(Nc2cc3c(cc2Cl)OCO3)nc1-n1ccc(C(=O)NC(CO)c2cccc(Cl)c2)c1 (stereo not shown) [Compound 101, 1-(2-((6-chloro-benzo[d][1,3]dioxol-5-yl)amino)-5-methylpyrimidin-4-yl)-N-(1-(3-chlorophenyl)-2-hydroxyethyl)-1H-pyrrole-3-carboxamide] | < 50 nM | ≤ 50 nM |  |  |
| CN1CCN(c2ccc(Nc3nccc(-n4cc(NC(=O)N[C@H](CO)c5cccc(Cl)c5)cn4)n3)cc2)CC1 [Compound 22, (S)-1-(1-(3-chlorophenyl)-2-hydroxyethyl)-3-(1-(2-((4-(4-methylpiperazin-1-yl)-phenyl)amino)pyrimidin-4-yl)-1H-pyrazol-4-yl)urea] | 100 to 500 nM | 50 to 100 nM |  |  |
| Cc1cnc(Nc2ccc(C3CCNCC3)c(F)c2)nc1-n1ccc(C(=O)NC(CO)c2cccc(Cl)c2)c1 (stereo not shown) [Compound 216, N-(1-(3-chlorophenyl)-2-hydroxyethyl)-1-(2-((3-fluoro-4-(piperidin-4-yl)phenyl)amino)-5-methylpyrimidin-4-yl)-1H-pyrrole-3-carboxamide] | < 50 nM | ≤ 50 nM |  |  |
| Cc1cnc(NC2CCOCC2)nc1-n1cnc(C(=O)N[C@H](CNCC(C)(C)C)c2cccc(Cl)c2)c1 [Example 337, (S)-N-(1-(3-chlorophenyl)-2-(neopentylamino)-ethyl)-1-(5-methyl-2-((tetrahydro-2H-pyran-4-yl)amino)-pyrimidin-4-yl)-1H-imidazole-4-carboxamide] |  |  | < 50 nM | ≤ 50 nM |
| Cc1cnc(Nc2ccc(F)cc2)nc1-n1ccc(C(=O)NC(CO)c2cccc(Cl)c2)c1 (stereo not shown) [Compound 113, N-(1-(3-chloro-phenyl)-2-hydroxy-ethyl)-1-(2-((4-fluorophenyl)amino)-5-methyl-pyrimidin-4-yl)-1H-pyrrole-3-carboxamide] | 50 to 100 nM | ≤ 50 nM |  |  |
| Cc1cnc(NC2CC=CCC2)nc1-n1cnc(C(=O)N[C@H](CN)c2cccc(Cl)c2)c1 (stereo partly drawn) [Example 292, N-((S)-2-amino-1-(3-chlorophenyl)-ethyl)-1-(2-(cyclohex-3-en-1-ylamino)-5-methyl-pyrimidin-4-yl)-1H-imidazole-4-carboxamide] | < 50 nM | ≤ 50 nM |  |  |
| Cc1cnc(NC2CCC(F)(F)CC2)nc1-n1cnc(C(=O)N[C@H](CO)c2cccc(Cl)c2)c1 [Compound 240, (S)-N-(1-(3-chlorophenyl)-2-hydroxyethyl)-1-(2-((4,4-difluorocyclo-hexyl)amino)-5-methylpyrimidin-4-yl)-1H-imidazole-4-carboxamide] | < 50 nM | ≤ 50 nM |  |  |
| Cc1cnc(Nc2ccc(F)cc2)nc1-n1cnc(C(=O)NCc2cccc(Cl)c2CO)c1 [Example 262, N-(3-chloro-2-(hydroxymethyl)benzyl)-1-(2-((4-fluorophenyl)-amino)-5-methyl-pyrimidin-4-yl)-1H-imidazole-4-carbox amide] | < 50 nM | ≤ 50 nM |  |  |
| CN(C(=O)Nc1cnn(-c2ccnc(NC3CC3)n2)c1)[C@H](CO)c1ccccc1 [Compound 18, (S)-3-(1-(2-(cyclopropylamino)pyrimidin-4-yl)-1H-pyrazol-4-yl)-1-(2-hydroxy-1-phenylethyl)-1-methylurea] | < 50 nM | 100 to 500 nM |  |  |
| Cc1cnc(NC2CC2)nc1-n1cc(C(=O)N[C@H](CO)c2cccc(Cl)c2)cn1 [Compound 39, (S)-N-(1-(3-chlorophenyl)-2-hydroxyethyl)-1-(2-(cyclopropylamino)-5-methylpyrimidin-4-yl)-1H-pyrazole-4-carboxamide] | 50 to 100 nM | ≤ 50 nM |  |  |
| Cc1cnc(NC2CCOCC2)nc1-n1cnc(C(=O)NCc2cccc(Cl)c2F)c1 [Example 309, N-(3-chloro-2-fluorobenzyl)-1-(5-methyl-2-((tetrahydro-2H-pyran-4-yl)amino)-pyrimidin-4-yl)-1H-imidazole-4-carboxamide] |  |  | < 50 nM | ≤ 50 nM |
| COC[C@@H](NC(=O)c1ccn(-c2nc(Nc3ccc4c(c3)OCO4)ncc2C)c1)c1ccccc1 [Compound 64, (S)-1-(2-(benzo[d][1,3]dioxol-5-ylamino)-5-methylpyrimidin-4-yl)-N-(2-methoxy-1-phenylethyl)-1H-pyrrole-3-carboxamide] | < 50 nM | ≤ 50 nM |  |  |
| Cc1cnc(Nc2ccc(F)cc2)nc1-n1cnc(C(=O)NC(CO)c2cccc(Cl)c2)c1 (stereo not shown) [Compound 155, N-(1-(3-chlorophenyl)-2-hydroxyethyl)-1-(2-((4-fluoro-phenyl)amino)-5-methylpyrimidin-4-yl)-1H-imidazole-4-carboxamide] | < 50 nM | ≤ 50 nM |  |  |
| Cc1cccc(C(CO)NC(=O)c2cn(-c3nc(NC4CCOCC4)ncc3C)cn2)c1 (stereo not shown) [Compound 238, N-(2-hydroxy-1-(m-tolyl)ethyl)-1-(5-methyl-2-((tetrahydro-2H-pyran-4-yl)amino)pyrimidin-4-yl)-1H-imidazole-4-carboxamide] | < 50 nM | ≤ 50 nM |  |  |
| O=C(NC(CO)c1ccccc1)c1ccn(-c2ccnc(Nc3ccc(F)cc3Cl)c2)c1 (stereo not shown) [Compound 82, 1-(2-((2-chloro-4-fluorophenyl)amino)pyridin-4-yl)-N-(2-hydroxy-1-phenylethyl)-1H-pyrrole-3-carboxamide] | 50 to 100 nM | ≤ 50 nM |  |  |
| O=C(N[C@H](CO)c1cccc(Cl)c1)c1cn(-c2ccnc(Nc3ccccc3)c2)cn1 [Compound 72, (S)-N-(1-(3-chlorophenyl)-2-hydroxyethyl)-1-(2-(phenylamino)pyridin-4-yl)-1H-imidazole-4-carboxamide] | < 50 nM | ≤ 50 nM |  |  |
| Cc1cnc(Nc2ccc(F)cc2Cl)nc1-n1ccc(C(=O)NC(COC(=O)C(N)CC(C)C)c2ccccc2)c1 (stereo not shown) [Compound 150, 2-(1-(2-((2-chloro-4-fluorophenyl)-amino)-5-methyl-pyrimidin-4-yl)-1H-pyrrole-3-carboxamido)-2-phenylethyl 2-amino-4-methyl-pentanoate] | 100 to 500 nM | ≤ 50 nM |  |  |
| CCNc1ncc(C)c(-n2ccc(C(=O)NC(CO)c3ccccc3)c2)n1 (stereo not shown) [Compound 130, 1-(2-(ethylamino)-5-methylpyrimidin-4-yl)-N-(2-hydroxy-1-phenylethyl)-1H-pyrrole-3-carboxamide] | 100 to 500 nM | 100 to 500 nM |  |  |
| Cc1cnc(Nc2ccc3c(c2)OC(F)(F)O3)cc1-n1ccc(C(=O)NC(CO)c2ccccc2)c1 (stereo not shown) [Compound 80, 1-(2-((2,2-difluorobenzo[d] [1,3]dioxol-5-yl)-amino)-5-methyl-pyridin-4-yl)-N-(2-hydroxy-1-phenyl-ethyl)-1H-pyrrole-3-carboxamide] | < 50 nM | ≤ 50 nM |  |  |
| Cc1cnc(Nc2ccc3c(c2)OCCO3)nc1-n1ccc(C(=O)NC(CO)c2ccccc2)c1 (stereo not shown) [Compound 131, 1-(2-((2,3-dihydrobenzo[b] [1,4]dioxin-6-yl)-amino)-5-methyl-pyrimidin-4-yl)-N-(2-hydroxy-1-phenylethyl)-1H-pyrrole-3-carboxamide] | < 50 nM | ≤ 50 nM |  |  |
| CC[C@H](CO)Nc1ncc(C)c(-n2cnc(C(=O)NCc3cccc(Cl)c3CO)c2)n1 [Example 336, (R)-N-(3-chloro-2-(hydroxymethyl)-benzyl)-1-(2-((1-hydroxybutan-2-yl)amino)-5-methylpyrimidin-4-yl)-1H-imidazole-4-carboxamide] |  |  | < 50 nM | ≤ 50 nM |
| COc1cc(Nc2ncc(C)c(-n3ccc(C(=O)NC(CO)c4ccccc4)c3)n2)ccc1F (stereo not shown) [Compound 154, 1-(2-((4-fluoro-3-methoxyphenyl)amino)-5-methyl-pyrimidin-4-yl)-N-(2-hydroxy-1-phenylethyl)-1H-pyrrole-3-carboxamide] | < 50 nM | ≤ 50 nM |  |  |
